Laboratory results taken from ChEMBL document CHEMBL5030568, “Design and Evaluation of Bispidine-Based SARS-CoV-2 Main Protease Inhibitors” (ACS Med Chem Lett, 2022).

How the values were obtained:
[1] = Inhibition of SARS coronavirus 2 3 main viral protease 3-chymotrypsin-like activity expressed in Escherichia coli using Dabcyl-VNSTLQSGLRK(FAM)MA as substrate measured by fluorescence intensity assay; design: species or system Severe acute respiratory syndrome coronavirus 2
HEK-293T = assay: Cytotoxicity against human HEK293T cells assessed as reduction in cell viability; format: cell-based

Structure (SMILES)	IC50 [1]	IC50 (HEK-293T)
Cc1cc(CN2CC3(C)CN(Cc4cc(C)no4)CC(C)(C2)C3=O)on1	5.2 µM	> 700 µM
CC(C)(C)OC(=O)N1CC2(C)CN(C(=O)OC(C)(C)C)CC(C)(C1)C2=O	5.9 µM	> 1000 µM
Cn1nc(C(=O)N2CC3(C)CN(C(=O)c4nn(C)c5c4Cc4ccccc4-5)CC(C)(C2)C3=O)c2c1-c1ccccc1C2	13 µM	> 800 µM
Cn1nc(C(=O)N2CC3(C)CN(C(=O)c4cc(-c5ccccc5)n(C)n4)CC(C)(C2)C3=O)cc1-c1ccccc1	1.45 µM	> 900 µM
CC12CN(Cc3ccccc3)CC(C)(CN(Cc3ccccc3)C1)C2=O	0.9 µM	359 µM
CC12CN(CCN(CC(=O)O)CC(=O)O)CC(C)(CN(CCN(C(=O)O)C(=O)O)C1)C2=O	33.7 µM	257 µM
CC12CN(CC(=O)O)CC(C)(CN(CC(=O)O)C1)C2=O	7.1 µM	> 1000 µM
C=CC(=O)N1CC2(C)CN(C(=O)C=C)CC(C)(C1)C2	99.6 µM	> 1000 µM
C#CC(=O)N1CC2(C)CN(C(=O)C#C)CC(C)(C1)C2=O	5.5 µM	57.3 µM
CC12CNCC(C)(CNC1)C2=O	2.6 µM	> 1000 µM
CC12CN(C(=O)c3cc(-c4ccccc4)n(-c4ccccc4)n3)CC(C)(CN(C(=O)c3cc(-c4ccccc4)n(-c4ccccc4)n3)C1)C2=O	1.4 µM	> 700 µM
CC12CN(Cc3cn(Cc4ccccc4)nn3)CC(C)(CN(Cc3cn(Cc4ccccc4)nn3)C1)C2=O	2.2 µM	560 µM
CC(C)Cc1ccc(C(C)C(=O)O)cc1 (stereo not given) [IBUPROFEN]	> 500 µM	–
Cn1nc(C(=O)N2CC3(C)CN(C(=O)c4nn(C)c5c4CCc4ccccc4-5)CC(C)(C2)C3=O)c2c1-c1ccccc1CC2	0.75 µM	> 800 µM
CC12CN(C(=O)OC(C)(C)C)CC(C)(CN(C(=O)OC(C)(C)C)C1)C2	17.9 µM	302 µM
CC12CN(C(=O)/C=C/c3ccccc3)CC(C)(CN(C(=O)/C=C/c3ccccc3)C1)C2=O	4.8 µM	> 1000 µM
Cn1nc(C(=O)N2CC3(C)CN(C(=O)c4cc(-c5cccs5)n(C)n4)CC(C)(C2)C3=O)cc1-c1cccs1	4.99 µM	456 µM
CC(=O)N1CC2(C)CN(C(C)=O)CC(C)(C1)C2=O	18.5 µM	> 1000 µM
CCOC(=O)c1cc(-n2cc(CN3CC4(C)CN(Cc5cn(-c6cc(C(=O)OCC)n[nH]6)nn5)CC(C)(C3)C4=O)nn2)[nH]n1	13.6 µM	–
CC12CN(C(=O)c3ccccc3)CC(C)(CN(C(=O)c3ccccc3)C1)C2=O	3.3 µM	692 µM
CCOC(=O)c1n[nH]cc1-n1cc(CN2CC3(C)CN(Cc4cn(-c5c[nH]nc5C(=O)OCC)nn4)CC(C)(C2)C3=O)nn1	16.3 µM	> 700 µM
C#CCN1CC2(C)CN(CC#C)CC(C)(C1)C2=O	8.8 µM	> 1000 µM
CC(C)(C)OC(=O)Cn1cc(CN2CC3(C)CN(Cc4cn(CC(=O)OC(C)(C)C)nn4)CC(C)(C2)C3=O)nn1	2.02 µM	465 µM
CC12CN(CC#N)CC(C)(CN(CC#N)C1)C2=O	5.5 µM	> 700 µM
CC(C)(C)OC(=O)NCCn1cc(CN2CC3(C)CN(Cc4cn(CCNC(=O)OC(C)(C)C)nn4)CC(C)(C2)C3=O)nn1	0.83 µM	410 µM
CC12CN(C(=O)/C=C/c3ccccc3)CC(C)(CN(C(=O)/C=C/c3ccccc3)C1)C2	46.6 µM	253 µM
